According to PMC6863955, “Quantitation of a Novel Engineered Anti-infective Host Defense Peptide, ARV-1502: Pharmacokinetic Study of Different Doses in Rats and Dogs” (Frontiers in Chemistry, 2019):
Where two headings read alike, the source gives them in different places. Non-standard residues stand in square brackets, D forms with d. Residues, ends and D or L forms follow the SMILES beside them. Ac6c = NC1(C(=O)O)CCCCC1

Legend:
in vivo [1] = conditions: Sprague-Dawley, rat; for level at 0.5 h: plasma concentration after 30 min
Experimental: (§1) A series of eight blood samples (~0.5 mL each) was collected in rats on Day 1. Following IM administration, the blood was collected at 5, 15, 30, and 45 min and at 1, 1.5, 2, and 3-h post-dose. After IV administration, blood was collected at 2, 5, 15, 30, and 45 min and at 1, 1.5, and 2-h post-dose. Animals were euthanized after the last blood collection by carbon dioxide asphyxiation followed by cervical dislocation and discarded without further examination. Safety parameters monitored on the study were mortality and clinical signs. Body weights (BW) were recorded to calculate the dose only. Blood sampling was performed for pharmacokinetic evaluation.
(§2) Aliquots of rat or Beagle plasma (20 μL) were spiked with standard peptide Onc72 (0.35 μg/mL plasma, 1.2 μL). Samples were diluted with aqueous TFA in two steps (0.2% v/v, 20 μL and 0.1% v/v, 260 μL) and loaded on an Oasis HLB 96-well-SPE-plate (5 mg sorbent per well, Waters). The samples were washed twice with aqueous TFA (0.1% v/v, 1 mL) and eluted in two steps with aqueous acetonitrile (30% v/v, 150 μL) containing formic acid (0.1% v/v). The fractions were dried in a vacuum centrifuge (SpeedVac, 60°C), reconstituted with aqueous methanol (75% v/v, 20 μL) containing formic acid (0.1% v/v), and diluted with aqueous acetonitrile (3% v/v, 100 μL) containing formic acid (0.1%).
(§3) A quadrupole-Orbitrap mass spectrometer (Q Exactive plus™, Thermo Scientific) was coupled online to an uHPLC (Vanquish™, Thermo Scientific). Separation was achieved on a Jupiter C18 column (inner diameter: 1 mm, length: 150 mm, particle size: 5 μm, pore size: 130 Å, Phenomenex Ltd.) at 55°C using a flow rate of 200 μL/min and a linear gradient of 3 to 23% (v/v) aqueous acetonitrile containing formic acid (0.1%) within 5 min.
(§4) Pharmacokinetic datasets were evaluated with a PKSolver add-in for Microsoft Excel using a non-compartmental analysis (Zhang et al., [2010]).

[2] = dog, in vivo
Experimental: (§5) The objective of the study conducted at ITR Laboratories Canada Inc (Baie d'Urfe, Quebec, Canada) was to determine the pharmacokinetic profile of ARV-1502 following single intravenous or intramuscular injection administration to Sprague-Dawley rats and Beagle dogs.
(§6) For the dog study, ARV-1502 was administered once IM (divided equally over 2 sites) and once IV (1 week apart) as detailed in Table 2. Following dosing, blood was collected at the same time points noted above for the rat study.
as §2, §3
(§7) ARV-1502 was quantitated by the peak area of an extracted ion chromatogram (XIC) obtained from the MS/MS using Xcalibur 4.0.27.21 software. The peak area of ARV-1502 corrected by using the peak area of Onc72.

[3] = rat, in vivo
Experimental: as §1, §2, §3, §4

in vivo [4] = conditions: Beagle, dog
Experimental: as §5, §6, §2, §3, §7

Compound: CC(C)C[C@H](NC(=O)[C@H](Cc1ccc(O)cc1)NC(=O)[C@@H]1CCCN1C(=O)[C@H](CCCNC(=N)N)NC(=O)[C@@H]1CCCN1C(=O)[C@H](CCCCN)NC(=O)[C@H](CC(=O)O)NC(=O)[C@@H]1CCCN1C(=O)[C@H](CCCNC(=N)N)NC(=O)C1(N)CCCCC1)C(=O)N1CCC[C@H]1C(=O)N[C@@H](CCCNC(=N)N)C(=O)N1CCC[C@H]1C(=O)N[C@@H](CCCNC(=N)N)C(=O)N1CCC[C@H]1C(=O)N1CCC[C@H]1C(=O)N[C@@H](CCCNC(=N)N)C(=O)N1CCC[C@H]1C(=O)N[C@H](C(=O)N[C@@H](CCCNC(=N)N)C(N)=O)C(C)C [ARV-1502, Chex1-Arg20 amide] (H-[Ac6c]RPDKPRPYLPRPRPPRPVR-NH2)
- half-life (in vivo [1]; im): 24.2 min
- MRT (in vivo [1]; iv, 0.25 mg/kg): 6.22 min
- half-life (in vivo [1]; iv, 0.25 mg/kg): 15.4 min
- Cmax (in vivo [1]; both, im, 2.5 mg/kg): 12000 ng/mL
- Tmax (in vivo [1]; both, im, 2.5 mg/kg): 15 min
- level at 5 min (in vivo [1]; both, im, 2.5 mg/kg, plasma concentration after 5 min): 11000 ± 3300 ng/mL
- level at 0.5 h (in vivo [1]; both, im, 2.5 mg/kg): ~900 ng/mL
- level at 3 h (in vivo [1]; both, im, 2.5 mg/kg, plasma concentration within 3 h): 16 ng/mL
- AUC(0-inf) (in vivo [1]; both, iv, 0.25 mg/kg): 521 ng·h/mL
- Cmax (in vivo [1]; both, iv, 0.25 mg/kg): 3410 ng/mL
- Tmax (in vivo [1]; both, iv, 0.25 mg/kg): 2 min
- level at 0.5 h (in vivo [1]; both, iv, 0.25 mg/kg): 64.2 ± 7.3 ng/mL
- level at 2 h (in vivo [1]; both, iv, 0.25 mg/kg, plasma concentration after 2 h): 2 to 4 ng/mL
- level at 5 min (in vivo [1]; female, im, 2.5 mg/kg, plasma concentration after 5 min (initial peptide level)): 13800 ± 1900 ng/mL
- level at 0.25 h (in vivo [1]; female, im, 2.5 mg/kg, plasma concentration at 15 min): 19000 ± 4900 ng/mL
- level at 5 min (in vivo [1]; male, im, 2.5 mg/kg, plasma concentration after 5 min (initial peptide level)): 8200 ± 1400 ng/mL
- level at 0.5 h (in vivo [1]; male, im, 2.5 mg/kg): 1000 ng/mL
- clearance rate in dogs relative to the rate in rats [2]: around half
- volume of distribution after IM, fold larger than the BV [2]: more than 9 fold
- AUMC0→∞ ([2]; iv, 0.075 mg/kg): 820.3 μg·min^2/mL
- k ([2]; iv, 0.075 mg/kg): 0.09 min⁻¹
- volume of distribution as share of circulating blood volume (BV) ([2]; iv, 0.075 mg/kg): ~ 84%
- plasma concentration 2 min after administration ([2]; male, Beagle, iv, 75 ug/kg, 2 min): 690 ± 150 ng/mL
- plasma concentration after 2 h ([3]; both, Sprague-Dawley, iv, 0.25 mg/kg, 2 h): 2.2 ± 0.4 ng/mL
- Cmax extrapolated in proportion to dose [3]: ~ 34 μg/mL
- volume of distribution after IM, fold higher than after IV [3]: more than 4 fold
- AUMC0→∞ ([3]; iv, 0.25 mg/kg): 194.6 μg·min^2/mL
- k ([3]; iv, 0.25 mg/kg): 0.045 min⁻¹
- plasma concentration lower in male rats than in female rats ([3]; iv, 0.25 mg/kg): around 25%
- volume of distribution as share of the theoretical circulating blood volume ([3]; iv, 0.25 mg/kg): 85%
- half-life (in vivo [4]; im): 15.8 min
- Vd (in vivo [4]; im, 0.75 mg/kg): 8.14 L
- C0 (in vivo [4]; iv, 0.075 mg/kg): 1040 ng/mL
- Cmax (in vivo [4]; iv, 0.075 mg/kg): 700 ng/mL
- MRT (in vivo [4]; iv, 0.075 mg/kg): 7.07 min
- Vd (in vivo [4]; iv, 0.075 mg/kg): 0.735 L
- half-life (in vivo [4]; iv, 0.075 mg/kg): 7.6 min
- Cmax (in vivo [4]; male, im, 0.75 mg/kg): 1000 ng/mL
- Tmax (in vivo [4]; male, im, 0.75 mg/kg): 15 min
- level at 5 min (in vivo [4]; male, im, 0.75 mg/kg, plasma concentration at 5 min): 940 ± 280 ng/mL
- level at 0.25 h (in vivo [4]; male, im, 0.75 mg/kg, plasma concentration at 15 min): 1100 ± 200 ng/mL
- AUC(0-inf) (in vivo [4]; male, iv, 0.075 mg/kg): 144 ng·h/mL
- level at 2 min (in vivo [4]; male, iv, 75 ug/kg, plasma concentration 2 min after administration): 700 ng/mL
- level at 0.5 h (in vivo [4]; male, iv, 75 ug/kg, plasma concentration after 30 min): 7.6 ± 1.3 ng/mL
